US20120157529A1 (priority 2009, published 2012)

T1: ToxT (Vibrio cholerae serotype O1, UniProt A5F384)
T1 construct: Full-length ToxT was cloned from Vibrio cholerae 0395; made in house; host or cells: E. coli BL21-CODONPLUS (DE3)-RIL
T1 sequence (A5F384 1-276): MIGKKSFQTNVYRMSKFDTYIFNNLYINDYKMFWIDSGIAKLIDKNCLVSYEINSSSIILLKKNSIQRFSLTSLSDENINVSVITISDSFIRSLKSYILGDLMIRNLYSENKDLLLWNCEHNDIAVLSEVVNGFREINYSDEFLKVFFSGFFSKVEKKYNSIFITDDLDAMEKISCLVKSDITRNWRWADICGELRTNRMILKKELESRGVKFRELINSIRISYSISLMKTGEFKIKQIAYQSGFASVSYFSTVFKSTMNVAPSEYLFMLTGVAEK

B1: tcp promoter 40 bp toxbox probe (dsDNA)
DNA 1: GTGTTATTAAAAAAATAAAAAAACACAGCAAAAAATGACA
DNA 2: TGTCATTTTTTGCTGTGTTTTTTTATTTTTTTAATAACAC

How the values were obtained:
ToxT-activated genes = conditions: cited from earlier work
tcp and ctx operons = assay: β-galactosidase assay of tcp-lacZ and ctx-lacZ fusions in V. cholerae cultures with added fatty acids; assay type: cell-based, Vibrio cholerae; conditions: fatty acid at 0.02% in methanol; LB medium pH 6.5, 30° C., 18 hours
Description: Expression is based upon β-galactosidase activity of tcpA-lacZ and ctx-lacZ fusion constructs, respectively. Cells were grown in LB medium pH 6.5 at 30° C. for 18 hours +/− the indicated fatty acids at 0.02% dissolved in methanol. C, control with methanol; PA, sodium palmitate; POA, palmitoleic acid; OA, oleic acid.
β-galactosidase Assays. β-galactosidase activity was determined by conventional methods (Miller (1972) Experiments in Molecular Genetics (Cold Spring Harbor Laboratory Press, Cold Spring Harbor, N.Y.). The tcp-lacZ and ctx-lacZ strains MBN135 (Nye, et al. (2000) J. Bacteriol. 182:4295-4303) and KSK218 (Skorupski & Taylor (1997) Proc. Natl. Acad. Sci. USA 94:265-270) were grown for 18 hours in LB media pH 6.5 at 30° C. Either methanol or the indicated fatty acids were added to 0.02%.
To address whether cis-palmitoleate was capable of influencing the activity of ToxT, different UFAs and SFAs were added to cultures of V. cholerae strains carrying transcriptional fusions to the tcp and ctx operons. […].

ToxT [1] = biological target: T1, ToxT; assay: Electrophoretic mobility shift assay of ToxT binding to tcp promoter DNA; assay type: biochemical; conditions: fatty acid 0.002%; 30 minutes at 30° C.
Description: Electrophoretic Mobility Shift Assays. Single-stranded, forty base-pair complimentary oligos (Operon) from the tcp promoter (5′-GTGTTATTAAAAAAATAAAAAAACACAGCAAAAAATGACA-3′; SEQ ID NO:1) were end labeled with a biotin-conjugated dUTP using the Biotin 3′ End Labeling Kit (Pierce) following the manufacturer's instructions and then annealed to form double-stranded fragments. EMSA's were carried out using the LightShift Chemiluminescent EMSA Kit (Pierce) following the manufacturer's instructions. Briefly, 2.5 pmole, 4 pmole, 5 pmole of ToxT were mixed with 50 fmole of double-stranded labeled DNA in a binding buffer (10 mM Tris pH 7.5, 1 mM EDTA, 100 mM KCl, 5 mM MgCl2, 1 mM DTT, 0.3 mg mL^−1 BSA, 150 μg herring sperm DNA, and 10% glycerol). Fatty acids were dissolved in methanol and added to a final concentration of 0.002% using the same volume of methanol as a control. To show specificity, a 70-fold molar excess of unlabeled double-stranded tcp fragment and a 70-fold molar excess of unlabeled nonspecific DNA (42 base pairs) were added as controls. Reactions were then incubated for 30 minutes at 30° C. and loaded on a 1×TBE 6% polyacrylamide gel at 4° C. then transferred onto a positively charged membrane (HYBOND XL, GE Healthcare) and detected by chemiluminescence. An EMSA experiment was conducted using the control reagents from the LightShift Chemiluminescent EMSA Kit following the manufacturer's instructions while adding methanol and 0.02% fatty acids.

V. cholerae strain 0395 = assay: Infant mouse cholera model, survival at 48 hours post-infection; assay type: in vivo; conditions: for protection of mice from cholera / survival versus control and methanol groups: infant mouse, 48 hours post-infection, Tukey HSD p<0.05
Description: FIG. 3 is a means diamond plot. Mouse lethality data was converted to survival rates based on percentage of 48 hours at time of death. A one-way ANOVA was used to test for survival rate differences among the five groups in the challenge assay. […] Arcsine transformations were performed on the data to remove possible bias caused by percentages but there was no difference between transformed and non-transformed data. A means diamond illustrates a sample mean and 95% confidence interval. The line across each diamond represents the group mean. The vertical span of each diamond represents the 95% confidence interval for each group. Overlap marks are drawn above and below the group mean. […] The horizontal extent of each group along the x-axis (the horizontal size of the diamond) is proportional to the sample size of each level of the x variable. It follows that the narrower diamonds are usually the taller ones because fewer data points yield a less precise estimate of the group mean. Control is bacteria in broth. MeOH is methanol and MeOHC received a second dose of methanol 1 hour after infection. PA is 0.2% palmiteoleic acid dissolved in methanol and PAC includes a second dose of 0.2% palmiteoleic acid administered 1 hour after infection.
Palmiteoleic acid (0.2%) dissolved in methanol was co-administered orally with approximately a 10 lethal dose 50 (LD50) of V. cholerae strain 0395. In some cases an additional administration of palmiteoleic acid was given to the mice one hour after infection. The ability of palmiteoleic acid to prevent death from cholera was assessed at 48 hours post-infection. The results are presented in FIG. 3 as a means diamond plot.

ToxT [2] = biological target: T1, ToxT; conditions: cited from earlier work
ToxT [3] = biological target: ToxT (Vibrio cholerae O395, UniProt A5F384 A5F384:1-276); assay: EMSA; bound at 100-fold molar excess of protein (5 pmol ToxT to 50 fmol DNA), not at 50-fold; competed by 70-fold unlabeled probe; 5 mM MgCl2, 100 mM KCl, pH 7.5, 30; conditions: tags: full-length; expressed as intein/CBD fusion (pTXB1, NEB IMPACT-CN), tag cleaved with DTT; label: 3' biotin-dUTP

| Molecule | inhibition of expression of ToxT-activated genes (ToxT-activated genes) | reduction of expression of tcp and ctx operons (β-galactosidase activity of lacZ fusions) (tcp and ctx operons) | effect on ToxT binding to DNA (40 base-pair tcp promoter probe) (ToxT [1]) | other results |
| --- | --- | --- | --- | --- |
| CCCCC/C=C\C/C=C\C/C=C\C/C=C\CCCC(=O)O [arachidonic acid] | strongly inhibit | – | – | – |
| CCCCC/C=C\C/C=C\CCCCCCCC(=O)O [linoleic acid] | strongly inhibit | – | – | – |
| CCCCCCCC/C=C\CCCCCCCC(=O)O [oleic acid] | strongly inhibit | 10-15 fold | completely prevented ToxT from binding to DNA | – |
| CCCCCCCCCCCCCCCC(=O)O [palmitic acid] | not shown to inhibit | two-fold | no effect on ToxT binding | – |
| CCCCCC/C=C\CCCCCCCC(=O)O [palmitoleic acid, (Z)-9-hexadecenoic acid] | – | 6-8 fold | completely prevented ToxT from binding to DNA | mean survival rate (percentage of 48 hours at time of death) (V. cholerae strain 0395; 0.2% co-administered orally plus second dose 1 hour after infection, group PAC {5}): 89.389%; mean survival rate (percentage of 48 hours at time of death) (V. cholerae strain 0395; 0.2% in methanol co-administered orally with about 10 LD50 V. cholerae 0395, group PA {4}): 80.093%; protection of mice from cholera / survival versus control and methanol groups (V. cholerae strain 0395; listed as PA): significantly higher survival rates; protection of mice from cholera / survival versus control and methanol groups (V. cholerae strain 0395; listed as palmiteoleic acid): extremely effective at protecting the mice from cholera |
| CCCCCCCCCCCCCCCCCC(=O)O [stearic acid] | not shown to inhibit | – | – | – |
| O=C(O)CCCN1C(=O)c2cccc3cccc(c23)C1=O [virstatin, 4-[N-(1,8-naphthalimide)]-n-butyric acid] | – | – | – | effect on ToxT dimerization and activation of tcp and ctx promoter transcription (ToxT [2]): interferes with ToxT's ability to dimerize and activate transcription of the tcp and ctx promoters |
| B1 | – | – | – | binding result (ToxT [3]): binds |
